Measured values: patent publication US6391826B1, “Optically active uracil compounds” (Sumitomo Chemical Company, Limited, priority 1998, dated 2002)

Columns and labels:
Format in all cases: in vivo
Parameters in all cases: key: “0” means that there was no or little difference in the degree of germination or growth between the treated and the untreated tested plants at the time of examination; “5” means that the test plants died complete or their germination or growth was completely inhibited
[1] = test system: johnsongrass (Sorghum halepense); test: Test Example 4: soil surface treatment on upland fields; conditions: examined after 25 days, index 0-5
Experimental: (§1) Soil Surface Treatment on upland fields Plastic pots which have an area of (26.5×19)cm^2 and a depth of 7 cm were filled with upland soil, seeded with hemp sesbania (Sesbania exaltata), barnyardgrass (Echinochloa crus-gali) and johnsongrass (Sorghum halepense). Each of the test compounds was formulated into emulsifiable concentrates according to Formulation Example 2, which was diluted with a designated amount of water, and such was uniformly sprayed over the soil surface in the pots with a sprayer at a volume of 100 liters per hectare. After the application, the test were grown in a greenhouse for 25 days, and the herbicidal activity was examined.

[2] = test system: barnyardgrass (Echinochloa crus-gali); test: as above; conditions: examined after 25 days, index 0-5
Experimental: as §1

[3] = test system: hemp sesbania (Sesbania exaltata); test: as above; conditions: examined after 25 days, index 0-5
Experimental: as §1

[4] = test system: johnsongrass (Sorghum halepense); test: Test Example 5: soil incorporation treatment on upland fields; conditions: examined after 19 days, index 0-5
Description: (§2) Soil Incorporation Treatment on Upland Fields Cylindrical plastic pots of 10 cm in diameter and a 10 cm in depth were filled with upland soil. The soil from the surface to 3 cm in depth was taken and mixed with the dilution which was given by diluting the emulsifiable concentrates of the test compounds, formulated according to Formulation Example 2, with water at a volume of 606 liters per hectare. Thereafter, the treated soil was put back to the pots, in which johnsongrass (Sorghum halepense) was sowed at 1.5 cm in depth. The test plants were grown in a greenhouse for 19 days, and the herbicidal activity was examined.

[5] = test system: johnsongrass (Sorghum halepense); test: Test Example 6: soil surface treatment on upland fields; conditions: examined after 25 days, index 0-5
Experimental: (§3) Soil Surface Treatment on Upland Fields Plastic pots which have an area of (26.5×19)cm^2 and a depth of 7 cm were filled with upland soil, seeded with johnsongrass (Sorghum halepense). Each of the test compounds was formulated into emulsifiable concentrates according to Formulation Example 2, which was diluted with a designated amount of water, and such was uniformly sprayed over the soil surface in the pots with a sprayer at a volume of 1000 liters per hectare. After the application, the test plants were placed in a greenhouse for 25 days, and the herbicidal activity was examined.

[6] = test system: johnsongrass (Sorghum halepense); test: Test Example 2: soil surface treatment on upland fields; conditions: examined after 25 days, index 0-5
Experimental: Soil Surface Treatment on Upland Fields
as §3, with “Plastic” for “Soil Surface Treatment on Upland Fields Plastic”, “grown” for “placed”

[7] = test system: johnsongrass (Sorghum halepense); test: Test Example (Table 3): soil incorporation treatment on upland fields; conditions: examined after 19 days, index 0-5
Description: Soil Incorporation Treatment on Upland Fields
as §2, with “Cylindrical” for “Soil Incorporation Treatment on Upland Fields Cylindrical”

[8] = test system: common cocklebur (Xanthium strumarium); test: Test Example 1: foliar treatment on upland fields; conditions: 1 g/ha active ingredient; foliar spray on 21-day plants, 1% Agri-Dex; examined after 21 days; index 0-5
Experimental: Foliar Treatment on Upland Fields
Plastic pots which have an area of (26.5×19)cm^2 and a depth of 7 cm were filled with upland soil, seeded with common cocklebur (Xanthium strumarium) and were given 21 days to grow in a greenhouse. Each of the test compounds was formulated into emulsifiable concentrates according to Formulation Example 2, which was diluted with a designated amount of water containing 1% Agri-Dex (adjuvant produced by Helena Chemical Company), and such was uniformly sprayed over the foliage of the test plants with a sprayer at a volume of 1000 liters per hectare. After the application, the test plants were grown in the greenhouse for 21 days, and the herbicidal activity was examined.

Structure (SMILES): CCOC(=O)C(C)Oc1cc(-n2c(=O)cc(C(F)(F)F)n(C)c2=O)c(F)cc1Cl (racemic) [Comparative Compound 2, ethyl (2RS)-2-[2-chloro-4-fluoro-5-[3-methyl-2,6-dioxo-4-(trifluoromethyl)-1,2,3,6-tetrahydropyrimidin-1-yl]phenoxy]propionate]
- Herbicidal Activity johnson-grass ([1]; 16 g/ha): 0
- Herbicidal Activity johnson-grass ([1]; 32 g/ha): 2
- Herbicidal Activity johnson-grass ([1]; 63 g/ha): 3
- Herbicidal Activity johnson-grass ([1]; 125 g/ha): 4
- Herbicidal Activity barnyard-grass ([2]; 16 g/ha): 0
- Herbicidal Activity barnyard-grass ([2]; 32 g/ha): 3
- Herbicidal Activity barnyard-grass ([2]; 63 g/ha): 3
- Herbicidal Activity barnyard-grass ([2]; 125 g/ha): 5
- Herbicidal Activity hemp sesbania ([3]; 16 g/ha): 0
- Herbicidal Activity hemp sesbania ([3]; 32 g/ha): 2
- Herbicidal Activity hemp sesbania ([3]; 63 g/ha): 3
- Herbicidal Activity hemp sesbania ([3]; 125 g/ha): 4
- Herbicidal Activity johnsongrass ([4]; 20 g/ha): 1
- Herbicidal Activity johnsongrass ([4]; 40 g/ha): 2
- Herbicidal Activity johnsongrass ([4]; 80 g/ha): 4

Structure (SMILES): C=CCOC(=O)C(C)Oc1cc(-n2c(=O)cc(C(F)(F)F)n(C)c2=O)c(F)cc1Cl (racemic) [Comparative Compound 3, allyl (2RS)-2-[2-chloro-4-fluoro-5-[3-methyl-2,6-dioxo-4-(trifluoromethyl)-1,2,3,6-tetrahydropyrimidin-1-yl]phenoxy]propionate, reference compound]
- Herbicidal Activity johnsongrass ([5]; 16 g/ha): 0
- Herbicidal Activity johnsongrass ([5]; 32 g/ha): 1
- Herbicidal Activity johnsongrass ([5]; 63 g/ha): 2

Structure (SMILES): COC(=O)C(C)Oc1cc(-n2c(=O)cc(C(F)(F)F)n(C)c2=O)c(F)cc1Cl (single isomer, unassigned) [Present Compound 6, methyl 2-[2-chloro-4-fluoro-5-[3-methyl-2,6-dioxo-4-(trifluoromethyl)-1,2,3,6-tetrahydropyrimidin-1-yl]phenoxy]propionate]
- Herbicidal Activity johnsongrass ([6]; 16 g/ha): 4
- Herbicidal Activity johnsongrass ([6]; 32 g/ha): 5
- Herbicidal Activity johnsongrass ([6]; 63 g/ha): 5
- Herbicidal Activity johnsongrass ([7]; 20 g/ha): 3
- Herbicidal Activity johnsongrass ([7]; 40 g/ha): 5
- Herbicidal Activity johnsongrass ([7]; 80 g/ha): 5

Structure (SMILES): COC(=O)C(C)Oc1cc(-n2c(=O)cc(C(F)(F)F)n(C)c2=O)c(F)cc1Cl (single isomer, unassigned) [Present Compound 7, methyl 2-[2-chloro-4-fluoro-5-[3-methyl-2,6-dioxo-4-(trifluoromethyl)-1,2,3,6-tetrahydropyrimidin-1-yl]phenoxy]propionate]
- Herbicidal Activity johnsongrass ([6]; 16 g/ha): 4
- Herbicidal Activity johnsongrass ([6]; 32 g/ha): 5
- Herbicidal Activity johnsongrass ([6]; 63 g/ha): 5
- Herbicidal Activity johnsongrass ([7]; 20 g/ha): 2
- Herbicidal Activity johnsongrass ([7]; 40 g/ha): 5
- Herbicidal Activity johnsongrass ([7]; 80 g/ha): 5

Structure (SMILES): COC(=O)[C@H](C)Oc1cc(-n2c(=O)cc(C(F)(F)F)n(C)c2=O)c(F)cc1Cl [Comparative Compound 1, methyl (2S)-2-[2-chloro-4-fluoro-5-[3-methyl-2,6-dioxo-4-(trifluoromethyl)-1,2,3,6-tetrahydropyrimidin-1-yl]phenoxy]propionate, reference compound]
- Herbicidal Activity Common Cocklebur [8]: 0

Structure (SMILES): COC(=O)C(C)Oc1cc(-n2c(=O)cc(C(F)(F)F)n(C)c2=O)c(F)cc1Cl (centres unmarked) [Comparative Compound 4, methyl 2-[2-chloro-4-fluoro-5-[3-methyl-2,6-dioxo-4-(trifluoromethyl)-1,2,3,6-tetrahydropyrimidin-1-yl]phenoxy]propionate, reference compound]
- Herbicidal Activity johnsongrass ([6]; 16 g/ha): 1
- Herbicidal Activity johnsongrass ([6]; 32 g/ha): 2
- Herbicidal Activity johnsongrass ([6]; 63 g/ha): 4
- Herbicidal Activity johnsongrass ([7]; 20 g/ha): 0
- Herbicidal Activity johnsongrass ([7]; 40 g/ha): 2
- Herbicidal Activity johnsongrass ([7]; 80 g/ha): 4

Structure (SMILES): COC(=O)[C@@H](C)Oc1cc(-n2c(=O)cc(C(F)(F)F)n(C)c2=O)c(F)cc1Cl [Present Compound 1, methyl (2R)-2-[2-chloro-4-fluoro-5-[3-methyl-2,6-dioxo-4-(trifluoromethyl)-1,2,3,6-tetrahydropyrimidin-1-yl]phenoxy]propionate]
- Herbicidal Activity Common Cocklebur [8]: 5

Structure (SMILES): CCOC(=O)[C@@H](C)Oc1cc(-n2c(=O)cc(C(F)(F)F)n(C)c2=O)c(F)cc1Cl [Present Compound 2, ethyl (2R)-2-[2-chloro-4-fluoro-5-[3-methyl-2,6-dioxo-4-(trifluoromethyl)-1,2,3,6-tetrahydropyrimidin-1-yl]phenoxy]propionate]
- Herbicidal Activity johnson-grass ([1]; 16 g/ha): 3
- Herbicidal Activity johnson-grass ([1]; 32 g/ha): 5
- Herbicidal Activity johnson-grass ([1]; 63 g/ha): 5
- Herbicidal Activity barnyard-grass ([2]; 16 g/ha): 5
- Herbicidal Activity barnyard-grass ([2]; 32 g/ha): 5
- Herbicidal Activity barnyard-grass ([2]; 63 g/ha): 5
- Herbicidal Activity hemp sesbania ([3]; 16 g/ha): 2
- Herbicidal Activity hemp sesbania ([3]; 32 g/ha): 5
- Herbicidal Activity hemp sesbania ([3]; 63 g/ha): 5
- Herbicidal Activity johnsongrass ([4]; 20 g/ha): 4
- Herbicidal Activity johnsongrass ([4]; 40 g/ha): 5
- Herbicidal Activity johnsongrass ([4]; 80 g/ha): 5

Structure (SMILES): C=CCOC(=O)[C@@H](C)Oc1cc(-n2c(=O)cc(C(F)(F)F)n(C)c2=O)c(F)cc1Cl [Present Compound 3, allyl (2R)-2-[2-chloro-4-fluoro-5-[3-methyl-2,6-dioxo-4-(trifluoromethyl)-1,2,3,6-tetrahydropyrimidin-1-yl]phenoxy]propionate]
- Herbicidal Activity johnsongrass ([5]; 16 g/ha): 3
- Herbicidal Activity johnsongrass ([5]; 32 g/ha): 5
- Herbicidal Activity johnsongrass ([5]; 63 g/ha): 5

Structure (SMILES): COC(=O)[C@@H](C)Oc1cc(-n2c(=O)cc(C(F)(F)F)n(C)c2=O)c(F)cc1Cl [Present Compound 5, methyl (2R)-2-[2-chloro-4-fluoro-5-[3-methyl-2,6-dioxo-4-(trifluoromethyl)-1,2,3,6-tetrahydropyrimidin-1-yl]phenoxy]propionate]
- Herbicidal Activity johnsongrass ([6]; 16 g/ha): 4
- Herbicidal Activity johnsongrass ([6]; 32 g/ha): 5
- Herbicidal Activity johnsongrass ([6]; 63 g/ha): 5
- Herbicidal Activity johnsongrass ([7]; 20 g/ha): 4
- Herbicidal Activity johnsongrass ([7]; 40 g/ha): 5
- Herbicidal Activity johnsongrass ([7]; 80 g/ha): 5
